In publication PMC3242598, “Phase I study of BIBF 1120 with docetaxel and prednisone in metastatic chemo-naive hormone-refractory prostate cancer patients” (British Journal of Cancer, 2011):
Where two headings read alike, the source gives them in different places.

How the values were obtained:
[1] = test system: metastatic hormone-refractory prostate cancer (HRPC); experiment: Evaluation of response (PSA decline, RECIST); format: in vivo, human
Procedure: All patients who received at least one dose of BIBF 1120 or docetaxel were assessed during the safety analysis. Intensity of AEs was graded according to Common Terminology Criteria for Adverse Events (CTCAE) version 3.0. Objective response was defined as a PSA decline ⩾50% from the baseline value over two consecutive courses and/or tumour response according to RECIST criteria ([Therasse et al, 2000]).

VEGFR = test system: VEGFR; set-up: method as in Hilberg et al, 2008; details: after a 1-h exposure; ref Hilberg et al, 2008; cited from earlier work
[2] = test system: advanced lung cancer patients; set-up: method as in Reck et al, 2011; details: phase II, ref Reck et al, 2011, cited from earlier work
[3] = test system: patients with metastatic, chemo-naive, hormone-refractory prostate cancer (HRPC); experiment: Dose escalation: dose-limiting toxicities and maximum tolerated dose; format: in vivo
Procedure: On days 2–21 (21-day cycle), patients took an oral dose of BIBF 1120 twice daily. Patients were instructed to swallow BIBF 1120 with water at the same time every day to ensure a dose interval of ∼12 h. On day 2 of treatment cycles (TCs) 1 and 2, patients only took the morning dose of BIBF 1120, omitting the evening dose to allow PK evaluation. All patients were premedicated with oral corticosteroids (dexamethasone 8 mg per os or methylprednisolone 32 mg per os, at 12 h and 1 h before docetaxel infusion) and subsequently took 5 mg prednisone oral BID throughout the trial. On day 1 of each TC, patients received an IV infusion of 75 mg m^−2 docetaxel administered over 1 h.
Based on prior clinical experience, the starting dose of BIBF 1120 in TC 1 was 100 mg BID; doses were escalated in 50 mg increments until the occurrence of a dose-limiting toxicity (DLT). Recognised DLTs included the occurrence of non-haematological related toxicity grade ⩾3 with the exception of alopecia, nail modifications, acute nausea or vomiting and isolated γ-glutamyl transpeptidase elevations. Alternatively, the occurrence of uncomplicated grade 4 neutropenia for >7 days, neutropenia grade ⩾3 associated with fever ⩾38.5 °C, or grade 4 thrombopenia or grade 3 thrombopenia associated with bleeding in […], was defined as a DLT. […]

[4] = test system: human prostate cancer xenografts; set-up: method as in Hilberg et al, 2008; details: human prostate cancer xenografts in athymic mice; ref Hilberg et al, 2008; cited from earlier work

Compound: COC(=O)c1ccc2c(c1)NC(=O)/C2=C(\Nc1ccc(N(C)C(=O)CN2CCN(C)CC2)cc1)c1ccccc1 [BIBF 1120]
- Estimated progression-free survival rate at 24 weeks ([1]; 250 mg BID + docetaxel/prednisone): 56%
- Patients with ⩾50% reduction in PSA levels from baseline (PSA response) ([1]; 19 assessable patients, BIBF 1120 + docetaxel/prednisone): 68.4%
- Patients with disease response (PSA and/or RECIST) ([1]; 19 evaluable patients, BIBF 1120 100–250 mg BID + docetaxel/prednisone): 73.7%
- Patients with complete biological response with normalisation of PSA ([1]; BIBF 1120 + docetaxel/prednisone): 33.3%
- Duration of block of VEGFR activation (VEGFR): > 32 h
- Frequency of CTCAE grade 3/4 liver enzyme elevations ([2]; 250 mg BID monotherapy): ~20%
- Frequency of CTCAE grade 3/4 liver enzyme elevations ([2]; 150-mg BID monotherapy): none
- Maximum tolerated dose (MTD) ([3]; continuous daily oral BIBF 1120 + docetaxel 75 mg m^−2 every 3 weeks + prednisone 5 mg BID): 250 mg BID
- DLTs at dose levels <250 mg BID ([3]; in vivo): no patients experienced DLTs
- Antitumour activity in vivo [4]: potent antitumour activity
